{"source": "patent US10179800B2", "about": "“Crystalline forms of S-[4-(3-fluoro-3-methylbutyryloxy)but-2-ynyl] 6-α,9-α-difluoro-17-α-(furan-2-yl)carbonyloxy-11-β-hydroxy-16-α-methyl-3-oxoandrosta-1,4-diene-17-β-carbothioate” (Sun Pharma Advanced Research Company Limited, priority 2015, dated 2019)", "experiment": "Stability of the solid form upon storage", "assay_type": "physicochemical", "details": "storage at ambient conditions", "data": [{"smiles": "C[C@@H]1CC2C3C[C@H](F)C4=CC(=O)C=C[C@]4(C)[C@@]3(F)[C@@H](O)C[C@]2(C)[C@@]1(OC(=O)c1ccco1)C(=O)SCC#CCOC(=O)CC(C)(C)F", "note": "(stereo partly drawn) [amorphous form, S-[4-(3-fluoro-3-methylbutyryloxy)but-2-ynyl]6α,9α-difluoro-17α-(furan-2-yl)carbonyloxy-11β-hydroxy-16α-methyl-3-oxoandrosta-1,4-diene-17β-carbothioate]", "values": [{"measurement": "stability upon storage", "value": "unstable upon storage even at ambient conditions"}]}]}
